Data published in patent US8859616B2, “Compounds and methods for enhancing hair growth” (Allergan, Inc., priority 2011, dated 2014).

Tests used:
Experiment in all cases: Prostanoid receptor functional activity measured by FLIPR
Assay type in all cases: cell-based
Conditions in all cases: n = 6 (#1), n = 3 (#2)
[1] = target: T1, hDP (Homo sapiens, UniProt Q13258)
T1 sequence (Q13258 1-359): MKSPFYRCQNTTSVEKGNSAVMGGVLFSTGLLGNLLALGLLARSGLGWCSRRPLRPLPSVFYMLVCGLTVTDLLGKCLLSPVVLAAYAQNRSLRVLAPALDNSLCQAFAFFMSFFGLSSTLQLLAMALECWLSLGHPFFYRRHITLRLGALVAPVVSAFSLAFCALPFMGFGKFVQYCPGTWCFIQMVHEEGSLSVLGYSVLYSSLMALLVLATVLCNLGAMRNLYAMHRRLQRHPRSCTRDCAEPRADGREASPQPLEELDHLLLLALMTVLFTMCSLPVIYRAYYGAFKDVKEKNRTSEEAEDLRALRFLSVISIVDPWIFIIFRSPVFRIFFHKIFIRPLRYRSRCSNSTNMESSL
Procedure: (§1) The above compounds are evaluated for their selectivity for various prostaglandin (PG) receptors. […] Thus, the method of the present invention may be carried out with EP3 and EP4 receptor agonists and/or prodrugs of EP3 and EP4 receptor agonists.

[2] = target: T2, hEP1 (Homo sapiens, UniProt P34995)
T2 sequence (P34995 1-402): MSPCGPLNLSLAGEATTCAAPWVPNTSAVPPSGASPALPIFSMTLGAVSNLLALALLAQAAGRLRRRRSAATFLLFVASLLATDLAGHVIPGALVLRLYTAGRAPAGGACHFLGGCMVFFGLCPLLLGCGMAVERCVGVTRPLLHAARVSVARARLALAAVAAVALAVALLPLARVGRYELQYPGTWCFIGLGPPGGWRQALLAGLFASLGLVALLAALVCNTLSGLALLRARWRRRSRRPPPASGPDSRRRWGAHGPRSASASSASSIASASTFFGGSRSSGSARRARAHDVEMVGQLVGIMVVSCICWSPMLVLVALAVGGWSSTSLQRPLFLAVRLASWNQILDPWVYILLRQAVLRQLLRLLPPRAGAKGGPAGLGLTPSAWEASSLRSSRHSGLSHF
Procedure: as §1

[3] = target: hEP2 (Homo sapiens, UniProt P43116)
Procedure: as §1

[4] = target: T3, hEP3 (Homo sapiens, UniProt P43115)
T3 sequence (P43115 1-390): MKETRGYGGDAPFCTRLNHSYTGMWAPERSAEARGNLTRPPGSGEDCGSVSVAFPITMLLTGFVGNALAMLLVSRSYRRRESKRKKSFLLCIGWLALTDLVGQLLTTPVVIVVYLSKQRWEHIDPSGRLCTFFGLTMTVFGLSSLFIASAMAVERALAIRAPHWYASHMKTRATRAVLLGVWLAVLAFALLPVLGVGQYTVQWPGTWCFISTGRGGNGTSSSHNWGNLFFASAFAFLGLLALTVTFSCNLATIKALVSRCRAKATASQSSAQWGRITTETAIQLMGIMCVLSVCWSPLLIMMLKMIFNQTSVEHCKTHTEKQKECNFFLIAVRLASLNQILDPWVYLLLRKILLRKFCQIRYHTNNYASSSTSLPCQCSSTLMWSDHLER
Procedure: as §1

[5] = target: hEP4 (Homo sapiens, UniProt P35408)
Procedure: as §1

[6] = target: hFP (Homo sapiens, UniProt P43088)
Procedure: as §1

[7] = target: hIP (Homo sapiens, UniProt P43119)
Procedure: as §1

[8] = target: T4, hTP (Homo sapiens, UniProt P21731)
T4 sequence (P21731 1-343): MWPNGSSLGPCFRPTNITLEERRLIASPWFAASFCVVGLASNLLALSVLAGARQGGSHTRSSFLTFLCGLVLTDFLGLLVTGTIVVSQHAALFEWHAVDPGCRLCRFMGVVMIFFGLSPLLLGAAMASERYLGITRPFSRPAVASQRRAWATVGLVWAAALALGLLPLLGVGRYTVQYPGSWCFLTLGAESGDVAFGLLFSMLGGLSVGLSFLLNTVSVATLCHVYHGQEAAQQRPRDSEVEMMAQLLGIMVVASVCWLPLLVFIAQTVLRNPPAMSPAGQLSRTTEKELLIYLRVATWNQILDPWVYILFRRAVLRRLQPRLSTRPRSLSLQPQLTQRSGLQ
Procedure: as §1

hFP, sequence (P43088 whole entry): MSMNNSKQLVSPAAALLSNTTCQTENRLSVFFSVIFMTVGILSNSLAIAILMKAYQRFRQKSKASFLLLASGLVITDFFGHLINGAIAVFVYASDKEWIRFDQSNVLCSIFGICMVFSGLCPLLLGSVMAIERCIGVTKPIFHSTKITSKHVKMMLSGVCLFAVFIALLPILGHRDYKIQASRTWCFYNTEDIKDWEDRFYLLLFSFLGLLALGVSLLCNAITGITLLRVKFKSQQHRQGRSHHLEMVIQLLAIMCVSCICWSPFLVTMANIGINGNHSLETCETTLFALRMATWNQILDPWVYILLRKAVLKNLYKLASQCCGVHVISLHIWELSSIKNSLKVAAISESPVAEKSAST
hEP2, sequence (P43116 whole entry): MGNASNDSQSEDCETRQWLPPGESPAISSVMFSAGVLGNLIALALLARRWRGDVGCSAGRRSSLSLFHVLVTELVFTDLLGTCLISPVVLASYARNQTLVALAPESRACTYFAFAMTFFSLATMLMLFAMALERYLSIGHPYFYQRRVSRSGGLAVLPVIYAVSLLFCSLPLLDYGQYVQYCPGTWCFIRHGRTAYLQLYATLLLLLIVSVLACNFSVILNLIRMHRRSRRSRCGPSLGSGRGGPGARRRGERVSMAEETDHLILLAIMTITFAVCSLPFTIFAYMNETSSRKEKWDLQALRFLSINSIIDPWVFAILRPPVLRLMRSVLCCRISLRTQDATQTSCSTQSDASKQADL
hIP, sequence (P43119 whole entry): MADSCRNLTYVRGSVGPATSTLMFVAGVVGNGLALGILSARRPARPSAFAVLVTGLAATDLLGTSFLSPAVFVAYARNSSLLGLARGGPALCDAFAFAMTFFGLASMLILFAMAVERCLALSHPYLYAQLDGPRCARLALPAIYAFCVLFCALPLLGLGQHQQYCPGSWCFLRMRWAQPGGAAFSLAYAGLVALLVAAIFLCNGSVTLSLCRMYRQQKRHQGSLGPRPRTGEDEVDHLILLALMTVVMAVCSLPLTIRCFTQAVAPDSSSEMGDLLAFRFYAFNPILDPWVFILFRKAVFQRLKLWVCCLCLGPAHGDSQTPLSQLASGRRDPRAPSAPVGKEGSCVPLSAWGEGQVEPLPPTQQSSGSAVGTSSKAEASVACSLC
hEP4, sequence (P35408 whole entry): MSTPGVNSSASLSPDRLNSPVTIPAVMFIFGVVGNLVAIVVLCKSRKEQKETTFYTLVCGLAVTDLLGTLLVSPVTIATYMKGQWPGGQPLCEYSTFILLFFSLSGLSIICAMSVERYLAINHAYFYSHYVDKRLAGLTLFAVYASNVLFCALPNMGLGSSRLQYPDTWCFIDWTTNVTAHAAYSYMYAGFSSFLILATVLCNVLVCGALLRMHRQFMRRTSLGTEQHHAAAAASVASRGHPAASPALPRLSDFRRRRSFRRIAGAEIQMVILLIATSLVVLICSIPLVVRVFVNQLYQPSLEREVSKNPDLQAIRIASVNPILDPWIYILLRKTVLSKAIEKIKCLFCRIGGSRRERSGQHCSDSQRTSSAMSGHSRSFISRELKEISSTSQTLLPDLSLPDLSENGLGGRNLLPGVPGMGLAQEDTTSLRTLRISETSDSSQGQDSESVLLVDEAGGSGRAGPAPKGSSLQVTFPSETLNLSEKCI

| EC50 [1] | EC50 [2] | EC50 [3] | EC50 [4] | EC50 [5] | EC50 [6] | EC50 [7] | EC50 [8] | SMILES |
| --- | --- | --- | --- | --- | --- | --- | --- | --- |
| > 10000 nM | 304 nM | 380 nM | 36 nM | 0.26 nM | > 10000 nM | > 10000 nM | 561 nM | CCCCC[C@H](O)/C=C/[C@H]1[C@H](O)CC(=O)[C@@H]1SCCCSCC(=O)O [#1, {3-[(1R,2S,3R)-3-Hydroxy-2-((S)-(E)-3-hydroxyoct-1-enyl)-5-oxocyclopentyl-sulfanyl]propylsulfanyl}acetic acid] |
| > 10000 nM | 2260 nM | 1110 nM | 44 nM | 2.55 nM | > 10000 nM | > 10000 nM | 3290 nM | CCCCC[C@H](O)/C=C/[C@H]1[C@H](O)CC(=O)[C@@H]1SCCCSCC(=O)OC(C)C [#2, {3-[(1R,2S,3R)-3-Hydroxy-2-((S)-(E)-3-hydroxyoct-1-enyl)-5-oxocyclopentyl-sulfanyl]propylsulfanyl}acetic acid isopropyl ester] |
